From ChEMBL document CHEMBL1151345, “Isolation of a new potential antitumor compound from Wedelia asperrima” (J Nat Prod, 1980) come the findings set out here.

Series [1] is filed under the species Rattus norvegicus. Put plainly: Toxicity in Wistar rat. As to conditions: in vivo. It is filed as organism-based.
In series [2] the test system is Mus musculus. The series is described as follows: Toxicity in ip dosed mouse. It counts as organism-based. Particulars: in vivo.
The species named for series [3] is Rattus norvegicus. The series is described as follows: Antitumor activity against aflatoxin B1-induced tumor in Wistar rat at 30 ug for 8 weeks. It is filed as functional, organism-based.

Structures are written as SMILES. Active and inactive are the calls of the source. The calls are words filed in the database; no cut-off is given here.

For the compound `C=C1[C@H](O)[C@]23CC[C@H]4C(C(=O)O)(C(=O)O)C[C@@H](O[C@@H]5O[C@H](CO)[C@@H](O[C@@H]6O[C@@H](C)[C@H](O)[C@@H](O)[C@H]6O)[C@H](OC(=O)CCc6ccccc6)[C@H]5NC(=O)CC(C)C)C[C@]4(C)[C@H]2CC[C@@]1(O)C3`, the LD100 in series [1] and in series [2] was 1 mg/kg each time.
As to `C=C1[C@H](O)[C@]23CC[C@H]4C(C(=O)O)(C(=O)O)C[C@@H](O[C@@H]5O[C@H](CO)[C@@H](O)[C@H](OC(=O)CCc6ccccc6)[C@H]5NC(=O)CC(C)C)C[C@]4(C)[C@H]2CC[C@@]1(O)C3` [WEDELOSIDE], in series [3], the result was Active. Moreover, the LD100 in series [1] and in series [2] was 1 mg/kg throughout.
